Reference: patent publication US12673961B2 (Agios Pharmaceuticals, Inc., priority 2022, dated 2026)

Each compound was assayed against T1, human PAH with the R408W mutation (Homo sapiens, UniProt P00439, R408W) (assay: Cell Based Phenylalanine Flux Assay). Details: A375 cells expressing human R408W PAH; 24 hrs with compound, then sepiapterin and 13C9,15N-Phenylalanine for 4 hours; 13C-Tyrosine by LC-MS; average where tested multiple times; read-out: AC50.
T1 construct: expressed in transfected cells
T1 sequence (P00439 1-452 R408W): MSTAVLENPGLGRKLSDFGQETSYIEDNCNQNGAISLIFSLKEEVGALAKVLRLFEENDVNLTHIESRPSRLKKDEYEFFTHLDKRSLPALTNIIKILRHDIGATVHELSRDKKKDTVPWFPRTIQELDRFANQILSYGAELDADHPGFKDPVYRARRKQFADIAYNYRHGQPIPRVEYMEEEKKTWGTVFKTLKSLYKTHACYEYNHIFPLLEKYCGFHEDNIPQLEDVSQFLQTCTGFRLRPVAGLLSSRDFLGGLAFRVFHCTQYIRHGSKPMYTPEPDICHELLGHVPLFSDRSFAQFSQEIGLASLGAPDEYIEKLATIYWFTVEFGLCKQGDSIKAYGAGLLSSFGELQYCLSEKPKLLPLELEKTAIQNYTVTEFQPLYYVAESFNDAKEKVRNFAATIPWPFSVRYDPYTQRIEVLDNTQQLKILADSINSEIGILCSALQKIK
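Also: Ten-point dose curve from 2-fold serial dilutions, run in duplicate at 0.5% DMSO final, tracer step used 20 µM sepiapterin and 800 µM labeled phenylalanine.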

SMILES	AC50 [µM]
CC(C)c1cccn2nc([C@H]3c4nc[nH]c4CCN3C(=O)c3nnc(-c4ccn(C(F)F)n4)o3)cc12 [Example 1982, (R)-(5-(1-(difluoromethyl)-1H-pyrazol-3-yl)-1,3,4-oxadiazol-2-yl)(4-(4-isopropylpyrazolo[1,5-a]pyridin-2-yl)-1,4,6,7-tetrahydro-5H-imidazo[4,5-c]pyridin-5-yl)methanone]	> 5
CC(C)c1cccn2nc([C@@H]3c4nc[nH]c4CCN3C(=O)c3nnc(-c4ccn(C(F)F)n4)o3)cc12 [Example 1983, (S)-(5-(1-(difluoromethyl)-1H-pyrazol-3-yl)-1,3,4-oxadiazol-2-yl)(4-(4-isopropylpyrazolo[1,5-a]pyridin-2-yl)-1,4,6,7-tetrahydro-5H-imidazo[4,5-c]pyridin-5-yl)methanone]	< 0.5
Cc1cccn2nc([C@H]3c4nc[nH]c4CCN3C(=O)c3nnc(C4CC4)s3)cc12 [Example 1996, (R)-(5-cyclopropyl-1,3,4-thiadiazol-2-yl)(4-(4-methylpyrazolo[1,5-a]pyridin-2-yl)-1,4,6,7-tetrahydro-5H-imidazo[4,5-c]pyridin-5-yl)methanone]	1 to 5
O=C(c1ocnc1C1CC1)N1CCc2[nH]cnc2[C@@H]1c1cc2c(C(F)(F)F)cccn2n1 [Example 2015, (R)-(4-cyclopropyloxazol-5-yl)(4-(4-(trifluoromethyl)pyrazolo [1,5-a]pyridin-2-yl)-1,4,6,7-tetrahydro-5H-imidazo[4,5-c]pyridin-5-yl)methanone]	1 to 5
Cc1cccn2nc([C@H]3c4nc[nH]c4CCN3C(=O)c3nc4ccccc4o3)cc12 [Example 2021, (R)-benzo[d]oxazol-2-yl (4-(4-methylpyrazolo[1,5-a]pyridin-2-yl)-1,4,6,7-tetrahydro-5H-imidazo[4,5-c]pyridin-5-yl)methanone]	> 5
O=C([C@@H]1CC1(F)F)N1CCc2[nH]cnc2[C@H]1c1cc2c(F)cccn2n1 [Example 2030, ((S)-2,2-difluorocyclopropyl) ((S)-4-(4-fluoropyrazolo[1,5-a]pyridin-2-yl)-1,4,6,7-tetrahydro-5H-imidazo[4,5-c]pyridin-5-yl)methanone]	< 0.5
O=C(c1cnc(-c2ccccn2)o1)N1CCc2[nH]cnc2[C@@H]1c1cc2c(C(F)F)cccn2n1 [Example 2035, (R)-(4-(4-(difluoromethyl)pyrazolo[1,5-a]pyridin-2-yl)-1,4,6,7-tetrahydro-5H-imidazo [4,5-c]pyridin-5-yl)(2-(pyridin-2-yl)oxazol-5-yl)methanone]	> 5
O=C(c1ocnc1C1CC1)N1CCc2[nH]cnc2[C@@H]1c1cc2c(C(F)F)cccn2n1 [Example 2038, (R)-(4-cyclopropyloxazol-5-yl)(4-(4-(difluoromethyl)pyrazolo [1,5-a]pyridin-2-yl)-1,4,6,7-tetrahydro-5H-imidazo[4,5-c]pyridin-5-yl)methanone]	1 to 5
O=C(c1ocnc1C1CC1)N1CCc2[nH]cnc2[C@H]1c1cc2c(C(F)F)cccn2n1 [Example 2039, (S)-(4-cyclopropyloxazol-5-yl)(4-(4-(difluoromethyl)pyrazolo [1,5-a]pyridin-2-yl)-1,4,6,7-tetrahydro-5H-imidazo[4,5-c]pyridin-5-yl)methanone]	< 0.5
O=C(c1ocnc1C1CC1)N1CCc2[nH]cnc2[C@H]1c1cc2c(Cl)cccn2n1 [Example 2040, (S)-(4-(4-chloropyrazolo [1,5-a]pyridin-2-yl)-1,4,6,7-tetrahydro-5H-imidazo [4,5-c]pyridin-5-yl)(4-cyclopropyloxazol-5-yl) methanone]	< 0.5
O=C(c1nc2ccccc2o1)N1CCc2[nH]cnc2[C@H]1c1cc2c(F)cccn2n1 [Example 2050, (S)-benzo[d]oxazol-2-yl (4-(4-fluoropyrazolo[1,5-a]pyridin-2-yl)-1,4,6,7-tetrahydro-5H-imidazo[4,5-c]pyridin-5-yl)methanone]	< 0.5
CC(C)(F)c1nnc(C(=O)N2CCc3[nH]cnc3[C@@H]2c2cc3c(C4CC4)cccn3n2)o1 [Example 2060]	> 5
Fc1cccc(F)c1-c1nnc(N2CCc3[nH]cnc3[C@@H]2c2cc3c(Cl)cccn3n2)o1 [Example 2062, (R)-2-(4-(4-chloropyrazolo [1,5-a]pyridin-2-yl)-1,4,6,7-tetrahydro-5H-imidazo [4,5-c]pyridin-5-yl)-5-(2,6-difluorophenyl)-1,3,4-oxadiazole]	> 5
CC(C)(F)c1ncc(C(=O)N2CCc3[nH]cnc3[C@H]2c2cc3c(F)cccn3n2)o1 [Example 2064, (S)-(2-(2-fluoropropan-2-yl)oxazol-5-yl)(4-(4-fluoropyrazolo[1,5-a]pyridin-2-yl)-1,4,6,7-tetrahydro-5H-imidazo[4,5-c]pyridin-5-yl)methanone]	< 0.5
Cc1c(-c2ncc(C(=O)N3CCc4[nH]cnc4[C@@H]3c3cc4c(C(F)F)cccn4n3)o2)cnn1C [Example 2069, (R)-(4-(4-(difluoromethyl)pyrazolo[1,5-a]pyridin-2-yl)-1,4,6,7-tetrahydro-5H-imidazo [4,5-c]pyridin-5-yl)(2-(1,5-dimethyl-1H-pyrazol-4-yl)oxazol-5-yl)methanone]	> 5
Cc1cccc2cc([C@H]3c4nc[nH]c4CCN3C(=O)c3ocnc3C3CC3)nn12 [Example 2071, (R)-(4-cyclopropyloxazol-5-yl)(4-(7-methylpyrazolo[1,5-a]pyridin-2-yl)-1,4,6,7-tetrahydro-5H-imidazo[4,5-c]pyridin-5-yl)methanone]	> 5
Cc1cccn2nc([C@H]3c4nc[nH]c4CCN3C(=O)c3oc(-c4cnn(C)c4)nc3C3CC3)cc12 [Example 2075]	1 to 5
O=C(C1CCC1)N1CCc2[nH]cnc2[C@@H]1c1cc2c(F)cccn2n1 [Example 2081, (R)-cyclobutyl(4-(4-fluoropyrazolo[1,5-a]pyridin-2-yl)-1,4,6,7-tetrahydro-5H-imidazo[4,5-c]pyridin-5-yl)methanone]	> 5
Fc1ccc(-c2nnc(N3CCc4[nH]cnc4[C@@H]3c3cc4cccc(Cl)n4n3)o2)cc1 [Example 2087, (R)-2-(4-(7-chloropyrazolo [1,5-a]pyridin-2-yl)-1,4,6,7-tetrahydro-5H-imidazo [4,5-c]pyridin-5-yl)-5-(4-fluorophenyl)-1,3,4-oxadiazole]	> 5
Fc1cccc(F)c1-c1nnc(N2CCc3[nH]cnc3[C@@H]2c2cc3cccc(Cl)n3n2)o1 [Example 2088, (R)-2-(4-(7-chloropyrazolo [1,5-a]pyridin-2-yl)-1,4,6,7-tetrahydro-5H-imidazo [4,5-c]pyridin-5-yl)-5-(2,6-difluorophenyl)-1,3,4-oxadiazole]	> 5
Cc1cccc2cc([C@H]3c4nc[nH]c4CCN3c3nnc(-c4c(F)cccc4F)o3)nn12 [Example 2090, (R)-2-(2,6-difluorophenyl)-5-(4-(7-methylpyrazolo[1,5-a]pyridin-2-yl)-1,4,6,7-tetrahydro-5H-imidazo[4,5-c]pyridin-5-yl)-1,3,4-oxadiazole]	> 5
Cc1cccc2cc([C@@H]3c4nc[nH]c4CCN3c3ccc(C(F)(F)F)cn3)nn12 [Example 2097, (S)-4-(7-methylpyrazolo [1,5-a]pyridin-2-yl)-5-(5-(trifluoromethyl)pyridin-2-yl)-4,5,6,7-tetrahydro-1H-imidazo[4,5-c]pyridine]	0.5 to 1
CC(C)(C)c1ncc(C(=O)N2CCc3[nH]cnc3[C@H]2c2cc3c(F)cccn3n2)o1 [Example 2100, (S)-(2-(tert-butyl)oxazol-5-yl)(4-(4-fluoropyrazolo[1,5-a]pyridin-2-yl)-1,4,6,7-tetrahydro-5H-imidazo[4,5-c]pyridin-5-yl)methanone]	< 0.5
Cn1cc(-c2nc(C3CC3)c(C(=O)N3CCc4[nH]cnc4[C@H]3c3cc4c(C(F)F)cccn4n3)o2)cn1 [Example 2114, (S)-(4-cyclopropyl-2-(1-methyl-1H-pyrazol-4-yl)oxazol-5-yl)(4-(4-(difluoromethyl)pyrazolo[1,5-a]pyridin-2-yl)-1,4,6,7-tetrahydro-5H-imidazo[4,5-c]pyridin-5-yl)methanone]	0.5 to 1
Cn1cc(-c2nc(C3CC3)c(C(=O)N3CCc4[nH]cnc4[C@H]3c3cc4c(C(F)(F)F)cccn4n3)o2)cn1 [Example 2116, (S)-(4-cyclopropyl-2-(1-methyl-1H-pyrazol-4-yl)oxazol-5-yl)(4-(4-(trifluoromethyl)pyrazolo[1,5-a]pyridin-2-yl)-1,4,6,7-tetrahydro-5H-imidazo[4,5-c]pyridin-5-yl)methanone]	< 0.5
Cn1cc(-c2nc(C3CC3)c(C(=O)N3CCc4[nH]cnc4[C@@H]3c3cc4c(C(F)(F)F)cccn4n3)o2)cn1 [Example 2117, (R)-(4-cyclopropyl-2-(1-methyl-1H-pyrazol-4-yl)oxazol-5-yl)(4-(4-(trifluoromethyl)pyrazolo[1,5-a]pyridin-2-yl)-1,4,6,7-tetrahydro-5H-imidazo[4,5-c]pyridin-5-yl)methanone]	1 to 5
Cc1cccn2nc([C@H]3c4nc[nH]c4CCN3C(=O)c3oc(-c4ccccn4)nc3C3CC3)cc12 [Example 2121, (R)-(4-cyclopropyl-2-(pyridin-2-yl)oxazol-5-yl)(4-(4-methylpyrazolo[1,5-a]pyridin-2-yl)-1,4,6,7-tetrahydro-5H-imidazo[4,5-c]pyridin-5-yl)methanone]	1 to 5
